Experimental data: paper PMC10449060 (Analysis & sensing, 2022)
Entries after “also recorded” stand apart in the source; their conditions may differ.

What was measured:
[1] = tested on: cathepsin F; test: 50 mM acetate buffer pH 5 with 1 mM EDTA and 1 mM DTT; conditions: up to 24 hours
[2] = tested on: cathepsin F (CatF); test: cathepsin F in 50 mM acetate buffer pH 5 with 1 mM EDTA and 1 mM DTT; conditions: up to 24 hours
[3] = tested on: cathepsin H (CatH); test: cathepsin H in 50 mM acetate buffer pH 5 with 1 mM EDTA and 1 mM DTT; conditions: up to 24 hours
[4] = tested on: cathepsin L (CatL); test: cathepsin L in 50 mM acetate buffer pH 5 with 1 mM EDTA and 1 mM DTT; conditions: up to 8 hours
[5] = tested on: cathepsin A (CatA); test: cathepsin A; conditions: 37°C, up to 8 hours
[6] = tested on: cathepsin C (CatC); test: cathepsin C; conditions: 37°C, up to 24 hours
[7] = tested on: cathepsin B (CatB); test: cathepsin B in 50 mM acetate buffer pH 5 with 1 mM EDTA and 1 mM DTT; conditions: up to 8 hours
[8] = molecular target: T1, CatC (Homo sapiens, UniProt P53634); test: E-64 inhibition of CatC activity; assay type: biochemical; conditions: compared with literature ~500 μM
[9] = molecular target: T1, CatC; conditions: only at high concentrations; cited from earlier work

T1 sequence (P53634 25-134 limits assumed): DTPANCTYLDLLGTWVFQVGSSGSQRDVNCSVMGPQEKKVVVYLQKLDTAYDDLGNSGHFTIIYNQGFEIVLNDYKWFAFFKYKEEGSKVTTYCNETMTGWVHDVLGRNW
T1 sequence (P53634 231-394 limits assumed): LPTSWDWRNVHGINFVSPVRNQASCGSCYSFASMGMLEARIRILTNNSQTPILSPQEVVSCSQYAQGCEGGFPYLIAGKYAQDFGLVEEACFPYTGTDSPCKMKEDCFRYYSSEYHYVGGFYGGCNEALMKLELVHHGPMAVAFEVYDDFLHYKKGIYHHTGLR
T1 sequence (P53634 395-463 limits assumed): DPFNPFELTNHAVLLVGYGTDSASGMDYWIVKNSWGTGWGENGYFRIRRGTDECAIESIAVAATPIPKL

| Molecule | not cleaved [2] | fragment found [3] | fragment found [4] | not cleaved [6] | not cleaved [7] | fragment found [5] | fragment found [7] | other results |
| --- | --- | --- | --- | --- | --- | --- | --- | --- |
| AKAKTDHGAEIVYK | no proteolytic digestion | TDHGAEIVYK; also recorded: DHGAEIVYK | IVYK and TDHGAEIVY and HGAEIVYK and GAEIVYK and AKTDHGAEIVYK and AKAKTDHGAEIVY | – | – | AKAKTDHGAEIVY, 0.5h; also recorded: AKAKTDHGAEIV; also recorded: AKAKTDHGAEI; also recorded: KTDHGAEIV; also recorded: AKTDHGAEIV; also recorded: KTDHGAEI; also recorded: AKTDHGAEI | – | not cleaved [1]: no proteolytic digestion; fragment found [6]: TDHGAEIVYK |
| SEMRLEKDRFSVNL | – | – | – | – | – | – | SEMRLEKDRF and SEMRLEKDR and LEKDRF and EKDRF and KDRF | fragment found [2]: SEMRLE; also recorded: KDRFSVNL; also recorded: SEMR, minor, longer time-points |
| SEMRLEKDRFSVNL (D-isoAsp variant) | – | – | – | – | no cleavage C-terminal to isomerized Asp | – | SEMRLEKDRF; also recorded: SEMRLEKDR | – |
| SEMRLEKDRFSVNL (D-Asp variant) | – | – | – | – | no cleavage C-terminal to isomerized Asp | – | SEMRLEKDRF; also recorded: SEMRLEKDR | – |
| CC(C)C[C@H](NC(=O)[C@H]1O[C@@H]1C(=O)O)C(=O)NCCCCN=C(N)N (relative stereo) [E-64, L-trans-Epoxysuccinyl-leucylamido(4-guanidino) butane] | – | – | – | – | – | – | – | E-64 inhibition of CatC activity observed by the authors [8]: activity inhibition at much-reduced concentration; concentration at which E-64 inhibits CatC [9]: ~ 500 μM |
| SEMRLEKDRFSVNL (L-isoAsp variant) | – | – | – | – | no cleavage C-terminal to isomerized Asp | – | SEMRLEKDRFS and SEMRLEKDRF and SEMRLEKDR and KDRF | – |

Continued, in another order:

| not cleaved [2] | fragment found [3] | fragment found [4] | not cleaved [6] | not cleaved [7] | Molecule | fragment found [5] | fragment found [7] | other results |
| --- | --- | --- | --- | --- | --- | --- | --- | --- |
| no proteolytic digestion | TDHGAEIVYK | IVYK and AKTDHGAEIVYK and AKAKTDHGAEIVY | no TDHGAEIVYK after 24 h | – | AKAKTDHGAEIVYK (D-Asp variant) | AKAKTDHGAEIVY, 0.5h; also recorded: AKAKTDHGAEIV; also recorded: AKAKTDHGAEI | – | – |
| no proteolytic digestion | TDHGAEIVYK | IVYK and AKTDHGAEIVYK and AKAKTDHGAEIVY | no TDHGAEIVYK after 24 h | – | AKAKTDHGAEIVYK (D-isoAsp variant) | AKAKTDHGAEIVY, 0.5h; also recorded: AKAKTDHGAEIV; also recorded: AKAKTDHGAEI | – | fragment found [6]: IVYK |
| – | TDHGAEIVYK | AKAKTDHGAEIVY and IVYK and AKTDHGAEIVYK | no TDHGAEIVYK after 24 h | – | AKAKTDHGAEIVYK (L-isoAsp variant) | AKAKTDHGAEIVY, 0.5h; also recorded: AKAKTDHGAEIV; also recorded: AKAKTDHGAEI | – | – |
